Where two headings read alike, the source gives them in different places.
How the values were obtained:
β-lactamase mutant E104K = β-lactamase mutant E104K (Escherichia coli, UniProt P62593, E102K); format: biochemical; conditions: number higher than 1 reflects a loss of potency against mutant
Description: (§1) The inhibition of TEM-1 β-lactamase was determined spectrophotometrically. B-lactamase activity was followed by measuring the hydrolysis of nitrocefin, [3-(2,4-dinitrostyryl)-(6R, 7R)-7-(2-thienylacetamido)-ceph-3-em-4-carboxylic acid, E-isomer], (Calbiochem, San Diego, Calif., USA) at 486 nm. Inhibition assays were performed at 25° C. in 50 mM sodium phosphate, 5% DMSO, pH 7.0. […] Inhibitor was added to the enzyme and incubated for ten minutes before the addition of substrate. Inhibition constants (Ki) for the inhibitors are obtained at the desired temperature and solvent conditions by measuring the rate of substrate hydrolysis at increasing amounts of inhibitors.
(§2) Three of the most important mutations are M69I, R244S and E104K.

β-lactamase mutant M69I = β-lactamase mutant M69I (Escherichia coli, UniProt P62593, M67I); format: biochemical; conditions: number higher than 1 reflects a loss of potency against mutant
Description: as §1, §2

β-lactamase mutant R244S = β-lactamase mutant R244S (Escherichia coli, UniProt P62593, R241S); format: biochemical; conditions: number higher than 1 reflects a loss of potency against mutant
Description: as §1, §2

TEM-1 β-lactamase [1] = biological target: T1, TEM-1 β-lactamase (Escherichia coli, UniProt P62593); assay: TEM-1 β-lactamase inhibition assay (nitrocefin hydrolysis, 486 nm); format: biochemical
Description: as §1
(§3) The competitive inhibition of β-lactamase was determined spectrophotometrically using a Varian (Walnut Creek, Calif.) Cary 100 UV-Visible spectrophotometer. β-lactamase activity was followed by measuring the hydrolysis of nitrocefin, [3-(2,4-dinitrostyryl)-(6R, 7R)-7-(2-thienylacetamido)-ceph-3-em-4-carboxylic acid, E-isomer], (Calbiochem, San Diego, Calif.) at 486 nm. Inhibition assays were performed at 25° C. in 50 mM sodium phosphate, 5% DMSO, pH 7.0. […] Penicillin G (Sigma, St. Louis, Mo.) was also used as a substrate to determine KM and kcat.
(§4) Inhibitor was added to protein and incubated for ten minutes before the addition of substrate. Inhibition constants were determined by measuring the loss of P-lactamase activity with increasing inhibitor concentrations and fitting the data to standard equations for competitive inhibition.
(§5) These methods can also be used to express and assay recombinant TEM-1 variant of β-lactamase.

AmpC β-lactamase [2] = biological target: T2, AmpC β-lactamase (Escherichia coli, UniProt P00811); assay: AmpC β-lactamase competitive inhibition assay (nitrocefin hydrolysis); format: biochemical
T2 construct: made in house; host or cells: E. coli BL21 (DE3)
Description: The gene for AmpC β-lactamase (accession number P00811) was obtained from Escherichia coli K12 strain W3110 (American Type Culture Collection, Rockville Md.). E. coli was grown and plasmid (F-lacIq lacPL8 ampC::lambdacI+) was isolated via Qiagen (Valencia, Calif.) mini prep. The gene for AmpC was amplified in two pieces via polymerase chain reaction, ligated and purified by agarose gel electrophoresis. The ligated gene was inserted into a pET200 vector via a TOPO reaction (Invitrogen, Carlsbad, Calif.).
BL21 (DE3) (Invitrogen) cells were transformed by heat-shock with the prepared plasmid. These cells were grown to an OD600 of 0.8 at 37° C. Isopropylthiogalactoside (IPTG) was added to 1 mM, incubation temperature decreased to 25° C. and the cells were grown for an additional 18 hours. After 18 hours, the E. coli was pelleted by centrifugation, and discarded. The growth media was concentrated and dialyzed versus 100 mM Tris, pH 7.0. This solution was run through an equilibrated Q-resin column, and washed with excess 100 mM Tris, pH 7.0.
as §3, §4

AmpC β-lactamase [3] = biological target: T2, AmpC β-lactamase; conditions: binding to AmpC; ITC
Description: (§6) Isothermal titration calorimetry was performed on a high-precision VP-ITC titration calorimeter (Microcal Inc., Northampton, Mass.). β-Lactamase solutions were titrated with inhibitors in 50 mM sodium phosphate, 2% DMSO, pH 7.0, with β-lactamase concentrations ranging from 15 to 25 μM and inhibitor concentrations ranging from 300 to 1000 μM. The heat evolved from each injection was obtained by integrating the calorimetric signal. Heat of binding was obtained as the difference between the heat of reaction and the heat of inhibitor dilution. Data were analyzed using Origin 7.0 (OriginLab Corporation, Northampton, Mass.).
Isothermal titration calorimetry was undertaken to determine the thermodynamic characteristics of binding to AmpC β-lactamase.

TEM-1 β-lactamase [4] = biological target: T1, TEM-1 β-lactamase; assay: Isothermal titration calorimetry, binding to TEM-1 β-lactamase (Example 17); conditions: ITC
Description: as §6, §5
Also shown are the results obtained for β-lactamase variant TEM-1.

[5] = Ki, 25° C., 50 mM sodium phosphate, 5% DMSO, pH 7.0, enzyme 5 nM, nitrocefin 167 μM

With `O=C(O)[C@H]1/C(=C/CO)O[C@@H]2CC(=O)N21` [Clavulanic, clavulanic acid, reference compound] the “Loss of potency: ratio of the inhibitory constant between mutant and wild type (Potencywt/Potencymutant), E104K” value (β-lactamase mutant E104K) was 0.67, the “Loss of potency: ratio of the inhibitory constant between mutant and wild type (Potencywt/Potencymutant), M69I” value (β-lactamase mutant M69I) was 163 and the “Loss of potency: ratio of the inhibitory constant between mutant and wild type (Potencywt/Potencymutant), R244S” value (β-lactamase mutant R244S) was 38.

In the case of `O=C(Oc1ccc2sc(=O)oc2c1)c1cc(B(O)O)cc([N+](=O)[O-])c1` [Compound (1f), 3-(2-OxO-benzo[1,3]oxathiol-6-oxycarbonyl)-5-nitrophenylboronic acid], the Ki (TEM-1 β-lactamase [1]; [5]) is reported as 33 ± 4 µM, the “Loss of potency: ratio of the inhibitory constant between mutant and wild type (Potencywt/Potencymutant), E104K” value (β-lactamase mutant E104K) is reported as 0.37 and the “Loss of potency: ratio of the inhibitory constant between mutant and wild type (Potencywt/Potencymutant), M69I” value (β-lactamase mutant M69I) is reported as 0.47. The “Loss of potency: ratio of the inhibitory constant between mutant and wild type (Potencywt/Potencymutant), R244S” value (β-lactamase mutant R244S) was 0.42.

`CCOC(=O)c1ccccc1OC(=O)c1cc(B(O)O)cc([N+](=O)[O-])c1` [Compound (1i), 3-(2-Ethoxycarbonyl-phenoxycarbonyl)-5-nitrophenylboronic acid] was tested, and the Ki (TEM-1 β-lactamase [1]; [5]) was 101 ± 4 µM, the “Loss of potency: ratio of the inhibitory constant between mutant and wild type (Potencywt/Potencymutant), E104K” value (β-lactamase mutant E104K) was 0.36 and the “Loss of potency: ratio of the inhibitory constant between mutant and wild type (Potencywt/Potencymutant), M69I” value (β-lactamase mutant M69I) was 0.50. For the same compound, the “Loss of potency: ratio of the inhibitory constant between mutant and wild type (Potencywt/Potencymutant), R244S” value (β-lactamase mutant R244S) was 0.34.

`O=C(Oc1ccc(OC(=O)c2cc(B(O)O)cc([N+](=O)[O-])c2)c(Cl)c1)c1cc(B(O)O)cc([N+](=O)[O-])c1` [Compound (2b), 3-Borono-5-nitrobenzoic acid 2-chloro-1,4-phenylene ester] showed a Ki (TEM-1 β-lactamase [1]; [5]) of 15.2 ± 1.4 µM, a Ki (TEM-1 β-lactamase [1]; Ki, TEM-1 β-lactamase) of 15.2 µM and a Ki (AmpC β-lactamase [2]) of 2.92 µM. For the same compound, the ΔG (AmpC β-lactamase [3]) was -7.736 kcal/mol, the ΔH (AmpC β-lactamase [3]) was -0.225 kcal/mol and the “−TΔS” value (AmpC β-lactamase [3]) was -7.511 kcal/mol. The ΔG (TEM-1 β-lactamase [4]) was -7.864 kcal/mol, the ΔH (TEM-1 β-lactamase [4]) was -0.52 kcal/mol and the “−TΔS” value (TEM-1 β-lactamase [4]) was -7.344 kcal/mol.

`O=C(Oc1c(Cl)c(Cl)c(OC(=O)c2cc(B(O)O)cc([N+](=O)[O-])c2)c(Cl)c1Cl)c1cc(B(O)O)cc([N+](=O)[O-])c1` [Compound (2c)] showed a Ki (TEM-1 β-lactamase [1]; Ki, TEM-1 β-lactamase) of 6.7 µM, a Ki (AmpC β-lactamase [2]) of 3.68 µM and a ΔG (AmpC β-lactamase [3]) of -7.115 kcal/mol. For the same compound, the ΔH (AmpC β-lactamase [3]) was -0.473 kcal/mol, the “−TΔS” value (AmpC β-lactamase [3]) was -6.642 kcal/mol and the ΔG (TEM-1 β-lactamase [4]) was -5.814 kcal/mol. For the same compound, the ΔH (TEM-1 β-lactamase [4]) was -1.648 kcal/mol and the “−TΔS” value (TEM-1 β-lactamase [4]) was -4.166 kcal/mol.

For `CC(C)(C)c1cc(OC(=O)c2cc(B(O)O)cc([N+](=O)[O-])c2)ccc1OC(=O)c1cc(B(O)O)cc([N+](=O)[O-])c1` [Compound (2d)], the Ki (TEM-1 β-lactamase [1]; Ki, TEM-1 β-lactamase) was 10.9 µM, the Ki (AmpC β-lactamase [2]) was 6.27 µM and the ΔG (AmpC β-lactamase [3]) was -7.098 kcal/mol. The ΔH (AmpC β-lactamase [3]) was 0 kcal/mol, the “−TΔS” value (AmpC β-lactamase [3]) was -7.098 kcal/mol and the ΔG (TEM-1 β-lactamase [4]) was -6.513 kcal/mol. For the same compound, the ΔH (TEM-1 β-lactamase [4]) was -0.859 kcal/mol and the “−TΔS” value (TEM-1 β-lactamase [4]) was -5.654 kcal/mol.

For `O=C(OCc1cccc(B(O)O)c1)c1cc(B(O)O)cc([N+](=O)[O-])c1` [Compound (3d), 3-(3-Boronobenzyloxycarbonyl)-5-nitrophenylboronic acid], the Ki (TEM-1 β-lactamase [1]; [5]) was 55.7 ± 4.3 µM, the Ki (AmpC β-lactamase [2]) was 1.03 µM and the ΔG (AmpC β-lactamase [3]) was -7.442 kcal/mol. For the same compound, the ΔH (AmpC β-lactamase [3]) was -15.637 kcal/mol and the “−TΔS” value (AmpC β-lactamase [3]) was 8.195 kcal/mol.

With `O=C(Oc1cccc(B(O)O)c1)c1c(Cl)cccc1Cl` [Compound (6a), 3-(2,6-Dichlorophenylcarbonyloxy)phenyl boronic acid] the Ki (TEM-1 β-lactamase [1]; [5]) was 28 ± 2.1 µM, the Ki (AmpC β-lactamase [2]) was 1.53 µM and the ΔG (AmpC β-lactamase [3]) was -7.757 kcal/mol. The ΔH (AmpC β-lactamase [3]) was -6.538 kcal/mol and the “−TΔS” value (AmpC β-lactamase [3]) was -1.219 kcal/mol.

Compound `O=C(Oc1ccc(OC(=O)c2ccc(B(O)O)cc2F)c(Cl)c1)c1ccc(B(O)O)cc1F` [Compound (7a), 4-Borono-2-fluorobenzoic acid 2-chloro-1,4-phenylene ester] has a Ki (TEM-1 β-lactamase [1]; [5]) of 122 ± 10 µM, a Ki (AmpC β-lactamase [2]) of 0.873 µM and a ΔG (AmpC β-lactamase [3]) of -7.314 kcal/mol. The ΔH (AmpC β-lactamase [3]) was -9.936 kcal/mol and the “−TΔS” value (AmpC β-lactamase [3]) was 2.622 kcal/mol.

`O=C(OCc1ccccc1COC(=O)c1cc(B(O)O)cc([N+](=O)[O-])c1)c1cc(B(O)O)cc([N+](=O)[O-])c1` [Compound (10a), 3-Borono-5-nitrobenzoic acid 1,2-benzenedimethanol ester] was tested, and the Ki (TEM-1 β-lactamase [1]; Ki, TEM-1 β-lactamase) was 9.7 µM, the Ki (AmpC β-lactamase [2]) was 0.457 µM and the ΔG (AmpC β-lactamase [3]) was -8.59 kcal/mol. The ΔH (AmpC β-lactamase [3]) was -4.149 kcal/mol, the “−TΔS” value (AmpC β-lactamase [3]) was -4.441 kcal/mol and the ΔG (TEM-1 β-lactamase [4]) was -7.183 kcal/mol. The ΔH (TEM-1 β-lactamase [4]) was -0.982 kcal/mol and the “−TΔS” value (TEM-1 β-lactamase [4]) was -6.201 kcal/mol.

`O=C(Oc1cc(OC(=O)c2cc(B(O)O)cc([N+](=O)[O-])c2)cc(OC(=O)c2cc(B(O)O)cc([N+](=O)[O-])c2)c1)c1cc(B(O)O)cc([N+](=O)[O-])c1` [Compound (12a), Tris(3-borono-5-nitrobenzoic acid), 1,3,5-trihydroxybenzene ester] showed a Ki (TEM-1 β-lactamase [1]) of 6.9 µM, a Ki (AmpC β-lactamase [2]) of 1.94 µM and a ΔG (AmpC β-lactamase [3]) of -7.231 kcal/mol. For the same compound, the ΔH (AmpC β-lactamase [3]) was -1.47 kcal/mol, the “−TΔS” value (AmpC β-lactamase [3]) was -5.761 kcal/mol and the ΔG (TEM-1 β-lactamase [4]) was -6.468 kcal/mol. The ΔH (TEM-1 β-lactamase [4]) was -0.69 kcal/mol and the “−TΔS” value (TEM-1 β-lactamase [4]) was -5.778 kcal/mol.

For `O=C(OCc1ccccc1)c1cccc(B(O)O)c1` [Compound F1001], the Ki (TEM-1 β-lactamase [1]; [5]) was 104 µM, the Ki (AmpC β-lactamase [2]) was 1.79 µM and the ΔG (AmpC β-lactamase [3]) was -6.83 kcal/mol. For the same compound, the ΔH (AmpC β-lactamase [3]) was -0.644 kcal/mol and the “−TΔS” value (AmpC β-lactamase [3]) was -6.186 kcal/mol.

With `CC1(C)[C@H](C(=O)O)N2C(=O)C[C@H]2S1(=O)=O` [Sulbactam, sulbactam, reference compound] the “Loss of potency: ratio of the inhibitory constant between mutant and wild type (Potencywt/Potencymutant), E104K” value (β-lactamase mutant E104K) was 1, the “Loss of potency: ratio of the inhibitory constant between mutant and wild type (Potencywt/Potencymutant), M69I” value (β-lactamase mutant M69I) was 15 and the “Loss of potency: ratio of the inhibitory constant between mutant and wild type (Potencywt/Potencymutant), R244S” value (β-lactamase mutant R244S) was 93.

In the case of `C[C@]1(Cn2ccnn2)[C@H](C(=O)O)N2C(=O)C[C@H]2S1(=O)=O` [Tazobactam, tazobactam, reference compound], the “Loss of potency: ratio of the inhibitory constant between mutant and wild type (Potencywt/Potencymutant), E104K” value (β-lactamase mutant E104K) is reported as 1, the “Loss of potency: ratio of the inhibitory constant between mutant and wild type (Potencywt/Potencymutant), M69I” value (β-lactamase mutant M69I) is reported as 31 and the “Loss of potency: ratio of the inhibitory constant between mutant and wild type (Potencywt/Potencymutant), R244S” value (β-lactamase mutant R244S) is reported as 105.

Source: patent publication US7183267B2, “β-lactamase inhibitors and methods of use thereof” (priority 2003, dated 2007)
